From patent US20160221921A1, “SKIN WHITENING AGENT CONTAINING NOVEL CYCLIC COMPOUND” (RNS CO.,LTD., priority 2013, published 2016)

Key:
[1] = system: B-16 mouse melanoma cells; assay: Melanin generation inhibitory effects in terms of cells; type: cell-based; details: 72 h, 5 μg/ml, cultured for 3 days, relative to control, read-out: Inhibition rate (%) of melanin generation
Protocol: Each of the compounds prepared according to the procedures described in Examples 1 to 29 and hydroquinone were added to a culture solution containing B-16 mouse melanoma cells, followed by experiments to determine whitening effects in terms of cells (Lotan R., Lotan D. Cancer Res., 40, pp. 3345-3350, 1980). After treating the compounds to have final concentrations of […] and […], respectively, each of these compounds was added to a culture medium containing B-16 melanoma cells and cultured for 3 days. Then, these cells were treated using trypsin, separated from a culture vessel and centrifuged, then, melanin was extracted from the cells. Melanin was dissolved by adding 1 ml of 1N sodium hydroxide solution to the extract and subjected to measurement of absorbance at 475 nm, and an amount of the generated melanin was expressed by an absorbance per unit number of cells (10^6 cells) (this procedure was repeated three times). An amount of the generated melanin relative to control was calculated as an inhibition rate (%), and results thereof are shown in Table 1 below.

[2] = system: B-16 mouse melanoma cells; assay: as above; type: cell-based; details: for inhibition at 20 µg/mL: 20 μg/ml
[3] = system: B-16 mouse melanoma cells; details: at 1 μg/ml or more
[4] = Mus musculus, 72 h, cultured for 3 days, relative to control, read-out: Inhibition rate (%) of melanin generation

Structure (SMILES) | inhibition at 5 µg/mL [1] [%] | inhibition at 20 µg/mL [2, 4] [%] | further results
CCCCCOC(=O)c1ccccc1OCCCCC [Example 4, 2-pentyloxy benzoic acid pentyl ester] | 54 | 65 | 
CCCCCOc1cccc(C(C)=O)c1 [Example 21, 1-(3-pentyloxy-phenyl)-ethanone] | 25 | 45 | 
CCCCCOC(=O)c1cc2ccccc2cc1OCCCCC [Example 17, 3-pentyloxy-2-naphthoic acid pentyl ester] | 38 | 52 | 
CCCCC(CC)C(=O)Oc1cccc(CCC)c1 (centres unmarked) [Example 27, 2-ethylhexanoic acid 3-propyl-phenyl ester] | 23 | 41 | 
CCCCCCCCCCOC(=O)c1ccccc1OCCCCCCCCCC [Example 7, 2-decyloxy benzoic acid decyl ester] | 22 | 35 | 
CCCCCOc1ccccc1C(C)=O [Example 20, 1-(2-pentyloxy-phenyl)-ethanone] | 24 | 41 | 
CCCCCCCCOC(=O)c1cccc(OCCCCCCCC)c1 [Example 13, 3-octyloxy benzoic acid octyl ester] | 29 | 41 | 
CCCCCCCCCCOC(=O)c1cccc(OCCCCCCCCCC)c1 [Example 14, 3-decyloxy benzoic acid decyl ester] | 21 | 32 | 
CCCCCOC(=O)c1cc(C(C)=O)ccc1OCCCCC [Example 15, 5-acetyl-2-pentyloxy benzoic acid pentyl ester] | 39 | 57 | 
Oc1ccc(O)cc1 [Hydroquinone, hydroquinone, reference compound] |  |  | cytotoxicity [3]: serious cytotoxicity; Inhibition rate (%) of melanin generation ([2]; 5 μg/ml, cultured for 3 days, relative to control): Apoptosis; inhibition at 1 µg/mL ([2]; Mus musculus, 72 h, 1 μg/ml, cultured for 3 days, relative to control, read-out: Inhibition rate (%) of melanin generation): 48%; melanin generation inhibitory effects (in words) ([2]; cultured mouse melanoma cells): strong effects of inhibiting melanin generation at a low concentration
CCCCC(CC)C(=O)Oc1ccccc1CCC (centres unmarked) [Example 26, 2-ethylhexanoic acid 2-propyl-phenyl ester] | 24 | 35 | 
CCCOC(=O)c1cccc(OCCC)c1 [Example 9, 3-propoxy benzoic acid propyl ester] | 29 | 48 | 
CCCCOC(=O)c1ccccc1OCCCC [Example 3, 2-butoxy benzoic acid butyl ester] | 45 | 64 | 
CCCCCOC(=O)c1ccc2ccccc2c1OCCCCC [Example 16, 1-pentyloxy-2-naphthoic acid pentyl ester] | 41 | 52 | 
CCCCC(CC)COC(=O)c1cccc(O)c1 (centres unmarked) [Example 29, 3-hydroxy benzoic acid 2-ethylhexyl ester] | 26 | 37 | 
CCCOC(=O)c1ccccc1OCCC [Example 2, 2-propoxy benzoic acid propyl ester] | 41 | 52 | 
CCCCCOC(=O)c1c(OCCCCC)cnc2ccccc12 [Example 19, 3-pentyloxy-quinoline-4-carboxylic acid pentyl ester] | 38 | 59 | 
CCOC(=O)c1ccccc1OCC [Example 1, 2-ethoxy benzoic acid ethyl ester] | 31 | 46 | 
CCOC(=O)c1cccc(OCC)c1 [Example 8, 3-ethoxy benzoic acid ethyl ester] | 27 | 42 | 
CC(=O)Oc1ccccc1C(C)=O [Example 23, acetic acid 2-acetyl-phenyl ester] | 27 | 41 | 
CCCCCCCCOC(=O)c1ccccc1OCCCCCCCC [Example 6, 2-octyloxy benzoic acid octyl ester] | 41 | 52 | 
CCCCCOC(=O)c1cccc(OCCCCC)c1 [Example 11, 3-pentyloxy benzoic acid pentyl ester] | 49 | 62 | 
CCCCOC(=O)c1cccc(OCCCC)c1 [Example 10, 3-butoxy benzoic acid butyl ester] | 38 | 54 | 
CCCCC(CC)C(=O)Oc1ccccc1C(C)=O (centres unmarked) [Example 24, 2-ethylhexanoic acid 2-acetyl-phenyl ester] | 19 | 38 | 
CCCCCOC(=O)c1ccncc1OCCCCC [Example 18, 3-pentyloxy-4-pyridinecarboxylic acid pentyl ester] | 42 | 71 | 
CCCCC(CC)COC(=O)c1ccccc1O (centres unmarked) [Example 28, 2-hydroxy benzoic acid 2-ethylhexyl ester] | 27 | 39 | 
CCCCCOc1cc2ccccc2cc1C(C)=O [Example 22, 1-(3-pentyloxy-naphthalen-2-yl)-ethanone] | 19 | 37 | 
CCCCCCOC(=O)c1cccc(OCCCCCC)c1 [Example 12, 3-hexyloxy benzoic acid hexyl ester] | 46 | 61 | 
CCCCCCOC(=O)c1ccccc1OCCCCCC [Example 5, 2-hexyloxy benzoic acid hexyl ester] | 52 | 67 | 
CCCCCOc1ccccc1CCC [Example 25, 1-pentyloxy-2-propyl-benzene] | 16 | 31 | 
